A word on the pKd: it is the Kd on a negative log10 scale, so that one unit is a factor of ten. Lower therefore signals a high Kd.

Structures are written as SMILES. pKd: −log10 of the molar value. Numbered stars: 1 amine (or outer) side, 2 acyl side, 3 side chain; on linkers, the order of the positions; unused ones are H or OH. Bridge positions count the residues as written; N and C are the ends. Square brackets hold non-standard residues; d marks the D form. Peptide text beside a SMILES is read from it. TATA = O=C(CC[*:1])N1CN(C(=O)CC[*:2])CN(C(=O)CC[*:3])C1; Dopa = N[C@@H](Cc1ccc(O)c(O)c1)C(=O)O; dCha = N[C@H](CC1CCCCC1)C(=O)O; Cba = N[C@@H](CC1CCC1)C(=O)O; dNle = CCCC[C@@H](N)C(=O)O Where only a bound is given, the exact number is not on record here.

The target of the assay is T1, Fc-tagged human NKp46 (Homo sapiens, UniProt O76036).
T1 construct: purchased ACROBiosystems NC1-H5257
T1 sequence (O76036 22-304): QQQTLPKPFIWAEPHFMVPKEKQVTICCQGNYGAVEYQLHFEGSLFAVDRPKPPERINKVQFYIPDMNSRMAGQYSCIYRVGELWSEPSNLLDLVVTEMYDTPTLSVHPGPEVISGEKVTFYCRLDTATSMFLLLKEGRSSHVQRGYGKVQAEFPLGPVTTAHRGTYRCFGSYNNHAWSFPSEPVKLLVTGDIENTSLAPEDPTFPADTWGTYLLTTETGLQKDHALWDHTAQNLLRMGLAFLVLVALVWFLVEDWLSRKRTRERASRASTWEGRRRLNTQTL
Nature of the assay: NKp46 SPR assay (Method 1 and/or Method 2). It is filed as binding. As to conditions: SPR Method 1 and/or Method 2, Table 3B. Here is the method:
SPR experiments were performed to determine ka (M^−1s^−1), kd (s^−1), KD (nM) values (where measurable) of various bicyclic peptides to immobilised NKp46.
For analysis of peptide binding to NKp46, a Biacore 3000 instrument was used with a Cytiva Streptavidin chip. Capture of the protein (recombinant human NKp46-Fc fusion biotinylated via Avi-tag) was carried out at 25° C. with HBS-N (10 mM HEPES, 0.15 M NaCl, pH 7.4) as the running buffer and biotinylated NKp46 was captured to a level of 400-800 RU using a dilution of protein to 0.2 μM in buffer. Buffer was then changed to PBS/0.05% Tween 20 and a dilution series of the peptides was prepared in this buffer with a final DMSO concentration of 0.5% with a top peptide concentration of 100 nM-5000 nM and 6 further 2 or 3-fold dilutions. The SPR analysis was run at 25° C. and a flow rate of 50 μl/min with 60 seconds association and 200-400 seconds dissociation time. Data were corrected for DMSO excluded volume effects. All data were double-referenced for blank injections and reference surface using standard processing procedures and data processing and kinetic fitting were performed using Scrubber software, version 2.0c (BioLogic Software). Data were fitted using simple 1:1 binding model allowing for mass transport effects where appropriate.
Peptides were tested against Fc-tagged human NKp46 (ACROBiosystems, cat no. NC1-H5257).
For analysis of peptide binding, a Biacore 8k+ instrument was used with a CM5 chip (Cytiva). All experiments were carried out at 25° C. Anti-human IgG (Fc) antibody (Cytiva) was immobilized on all flow cells by standard amine coupling chemistry. The running buffer was HBS-N(Cytiva, 10 mM HEPES, 0.15 M NaCl, pH 7.4) and the flow rate was 10 μL/min. The carboxymethyl dextran surface was activated with a 1:1 ratio of 0.4 M 1-ethyl-3-(3-dimethylaminopropyl) carbodiimide hydrochloride (EDC)/0.1 M N-hydroxy succinimide (NHS) (Cytiva) for 420s. […] Residual activated groups were blocked with a 420 s injection of 1 M ethanolamine (pH 8.5). The final surface density was 3000-5000 RU. Fc-tagged human NKp46 was diluted to 0.1 μM in HBS-N and was captured on flow cell 2 only of the sensor chip at a flow rate of 10 μL/min to 500-1000 RU. The buffer was then changed to PBS-P+(Cytiva) supplemented with 2% DMSO. […] The flow rate was 50 μL/min with 60 s association and 400 s dissociation. Data were corrected for DMSO volume exclusion effects. All data were double-referenced against blank injections and reference surface response using standard processing procedures. Data processing and kinetic fitting was performed using Biacore Insight Evaluation Software with Extended Screening and Characterization Extension (Cytiva). Data were fitted using steady state affinity 1:1 binding model to determine KD. Data were fitted using kinetic 1:1 binding model to determine kinetic constants where appropriate.
Background: In SPR one partner is held on a chip, and binding of the other changes the refractive index at the surface.
In turn, `CSCC[C@@H]1NC(=O)[C@H](CCCCN)NC(=O)[C@@H]2CCCN2C(=O)[C@H](Cc2c[nH]cn2)NC(=O)[C@H]([C@@H](C)O)NC(=O)[C@H](CC(N)=O)NC(=O)[C@@H]2CCCN2C(=O)[C@@H]2CSCCC(=O)N3CN(CN(C3)C(=O)CCSC[C@@H](C(=O)N[C@@H](C)C(N)=O)NC1=O)C(=O)CCSC[C@H](NC(=O)[C@H](C)N)C(=O)N[C@@H](CC(C)C)C(=O)N[C@@H](CC(C)C)C(=O)N[C@@H](Cc1c[nH]cn1)C(=O)N[C@@H](CC(=O)O)C(=O)N[C@@H](Cc1c[nH]cn1)C(=O)N2` [BCY14457, A-(SEQ ID NO: 103)-A] (H-ACLLHDHCPNTHPKMCA-NH2; linker 2-8-16 via TATA) showed a pKd of 5.64.
With `CC[C@H](C)[C@@H]1NC(=O)CNC(=O)[C@H](Cc2c[nH]c3ccccc23)NC(=O)[C@H](CCC(N)=O)NC(=O)[C@@H]2CSCCC(=O)N3CN(CN(C3)C(=O)CCSC[C@H](N)C(=O)N[C@@H](CC(=O)O)C(=O)N[C@@H](CC(C)C)C(=O)N[C@@H]([C@@H](C)O)C(=O)N[C@@H]([C@@H](C)O)C(=O)N[C@@H](Cc3c[nH]cn3)C(=O)N[C@@H](CC(N)=O)C(=O)N2)C(=O)CCSC[C@@H](C(=O)N[C@@H](C)C(N)=O)NC1=O` [BCY19718, (SEQ ID NO: 11)-A] (H-CDLTTHNCQWGICA-NH2; linker 1-8-13 via TATA) the figure was 5.95.
Consider `CC(=O)N[C@H]1CSCCC(=O)N2CN3CN(C2)C(=O)CCSC[C@H](NC(=O)[C@H](CC(C)C)NC(=O)[C@H](Cc2ccc(O)c(O)c2)NC(=O)[C@H](CC(=O)O)NC(=O)[C@@H]2CCCN2C(=O)[C@H](CC2CCC2)NC(=O)[C@H](Cc2ccc(O)cc2)NC1=O)C(=O)N[C@H](C)C(=O)N[C@@H](CC(=O)O)C(=O)N[C@@H](CCC(=O)O)C(=O)N[C@@H](Cc1ccc(O)cc1)C(=O)N[C@H](C(N)=O)CSCCC3=O` [BCY19686, Ac-(SEQ ID NO: 150)] (Ac-CY[Cba]PD[Dopa]LC[dA]DEYC-NH2; linker 1-8-13 via TATA; C-terminus assumed), for which the pKd was 7.36.
With `CSCC[C@@H]1NC(=O)[C@@H]2CSCCC(=O)N3CN(CN(C3)C(=O)CCSC[C@@H](C(=O)N[C@@H](C)C(N)=O)NC(=O)[C@H](C(C)C)NC(=O)[C@H](CCCCN)NC(=O)CNC(=O)[C@H]([C@@H](C)O)NC(=O)[C@H](CCC(N)=O)NC1=O)C(=O)CCSC[C@H](NC(=O)[C@H](C)N)C(=O)N[C@@H](CC(N)=O)C(=O)N[C@@H](CC(C)C)C(=O)N[C@@H](CCC(N)=O)C(=O)N[C@@H](C)C(=O)N1CCC[C@H]1C(=O)N2` [BCY15098, A-(SEQ ID NO: 3)-A] the figure was 5.97.
With `CC(=O)N[C@@H]1CSCCC(=O)N2CN3CN(C2)C(=O)CCSC[C@H](NC(=O)[C@H](CC(C)C)NC(=O)[C@H](Cc2ccc(O)cc2)NC(=O)[C@H](CC(=O)O)NC(=O)[C@@H]2CCCN2C(=O)[C@H](CC2CCC2)NC(=O)[C@H](Cc2ccc(O)cc2)NC1=O)C(=O)N[C@H](C)C(=O)N[C@@H](CC(=O)O)C(=O)N[C@@H](CCC(=O)O)C(=O)N[C@@H](Cc1ccc(O)cc1)C(=O)N[C@H](C(N)=O)CSCCC3=O` [BCY19693, Ac-(SEQ ID NO: 157)] (Ac-[dC]Y[Cba]PDYLC[dA]DEYC-NH2; linker 1-8-13 via TATA; C-terminus assumed) the figure was 7.77.
The figure for `CC(C)C[C@@H]1NC(=O)[C@H](CC(=O)O)NC(=O)[C@@H](NC(=O)[C@H](C)N)CSCCC(=O)N2CN3CN(C2)C(=O)CCSC[C@H](NC(=O)[C@H](CC(N)=O)NC(=O)[C@H](Cc2c[nH]cn2)NC(=O)[C@H]([C@@H](C)O)NC(=O)[C@H]([C@@H](C)O)NC1=O)C(=O)N[C@@H](CCC(N)=O)C(=O)N[C@@H](Cc1c[nH]c2ccccc12)C(=O)NCC(=O)N[C@@H](C)C(=O)N[C@H](C(=O)N[C@@H](C)C(N)=O)CSCCC3=O` [BCY18272, A-(SEQ ID NO: 120)-A] (H-ACDLTTHNCQWGACA-NH2; linker 2-9-14 via TATA) is 5.50.
In the case of `CC(=O)N[C@H]1CSCCC(=O)N2CN3CN(C2)C(=O)CCSC[C@H](C(N)=O)NC(=O)[C@H](Cc2ccc(O)cc2)NC(=O)[C@H](CCC(=O)O)NC(=O)[C@H](CC(=O)O)NC(=O)[C@@H](C)NC(=O)[C@H](CSCCC3=O)NC(=O)[C@H](CC(C)C)NC(=O)[C@H](Cc2ccc(O)cc2)NC(=O)[C@H](CC(=O)O)NC(=O)[C@@H]2CCCN2C(=O)[C@H](CC2CCC2)NC(=O)[C@H](Cc2ccc(O)cc2)NC1=O` [BCY19692, Ac-(SEQ ID NO: 156)] (Ac-CY[Cba]PDYLC[dA]DEY[dC]-NH2; linker 1-8-13 via TATA), the pKd was < 6.30.
Turning to `CSCC[C@@H]1NC(=O)[C@@H]2CSCCC(=O)N3CN(CN(C3)C(=O)CCSC[C@@H](C(=O)N[C@@H](C)C(N)=O)NC(=O)[C@H](C(C)C)NC(=O)[C@H](CCCCN)NC(=O)CNC(=O)[C@H]([C@@H](C)O)NC(=O)[C@H](CCC(N)=O)NC1=O)C(=O)CCSC[C@H](NC(=O)[C@H](C)N)C(=O)N[C@@H](CC(N)=O)C(=O)N[C@@H](CC(C)C)C(=O)N[C@@H](CCC(N)=O)C(=O)N[C@@H](CCC(N)=O)C(=O)N[C@@H](C)C(=O)N2` [BCY19713, A-(SEQ ID NO: 102)-A] (H-ACNLQQACMQTGKVCA-NH2; linker 2-8-15 via TATA; N-terminus assumed), the pKd was 5.74.
The figure for `CC(=O)N[C@H]1CSCCC(=O)N2CN3CN(C2)C(=O)CCSC[C@H](NC(=O)[C@H](CC(C)C)NC(=O)[C@H](Cc2ccc(O)cc2)NC(=O)[C@H](CC(=O)O)NC(=O)[C@@H]2CCCN2C(=O)[C@H](CC2CCC2)NC(=O)[C@H](Cc2ccc(O)cc2)NC1=O)C(=O)N[C@H](CC1CCCCC1)C(=O)N[C@@H](CC(=O)O)C(=O)N[C@@H](CCC(=O)O)C(=O)N[C@@H](Cc1ccc(O)cc1)C(=O)N[C@H](C(N)=O)CSCCC3=O` [BCY19683, Ac-(SEQ ID NO: 147)] (Ac-CY[Cba]PDYLC[dCha]DEYC-NH2; linker 1-8-13 via TATA; C-terminus assumed) is 8.00; for `CSCC[C@@H]1NC(=O)[C@@H]2CSCCC(=O)N3CN(CN(C3)C(=O)CCSC[C@H](N)C(=O)N[C@@H](CC(N)=O)C(=O)N[C@@H](CC(C)C)C(=O)N[C@@H](CCC(N)=O)C(=O)N[C@@H](C)C(=O)N3CCC[C@H]3C(=O)N2)C(=O)CCSC[C@@H](C(=O)N[C@@H](C)C(N)=O)NC(=O)[C@H](C(C)C)NC(=O)[C@H](CCCCN)NC(=O)CNC(=O)[C@H]([C@@H](C)O)NC(=O)[C@H](CC(C)C)NC1=O` [BCY19694, (SEQ ID NO: 4)-A] (H-CNLQAPCMLTGKVCA-NH2; linker 1-7-14 via TATA) it is 5.60.
With `CCCC[C@H]1NC(=O)[C@@H]2CSCCC(=O)N3CN(CN(C3)C(=O)CCSC[C@H](NC(C)=O)C(=O)N[C@@H](Cc3ccc(O)cc3)C(=O)N[C@@H](CC3CCC3)C(=O)N3CCC[C@H]3C(=O)N[C@@H](CC(=O)O)C(=O)N[C@@H](Cc3ccc(O)cc3)C(=O)N[C@@H](CC(C)C)C(=O)N2)C(=O)CCSC[C@@H](C(N)=O)NC(=O)[C@H](Cc2ccc(O)cc2)NC(=O)[C@H](CCC(=O)O)NC(=O)[C@H](CC(=O)O)NC1=O` [BCY19685, Ac-(SEQ ID NO: 149)] (Ac-CY[Cba]PDYLC[dNle]DEYC-NH2; linker 1-8-13 via TATA) the figure was 8.00.

These data come from patent US20240108738A1, “BICYCLIC PEPTIDE LIGANDS SPECIFIC FOR NK CELLS” (Bicycle Tx Limited, priority 2021, published 2024).
